Assay results: ChEMBL document CHEMBL5331042, “Azole inhibitors of mushroom and human tyrosinases: Current advances and prospects of drug development for melanogenic dermatological disorders” (Eur J Med Chem, 2022)
Blank lines part the entries; values can stand above or below the compound they belong to.

Legend:
Tyrosinase [1] = molecular target: T1, Tyrosinase (Homo sapiens, UniProt P14679); experiment: Inhibition of human tyrosinase using L-DOPA as substrate incubated for 10 to 20 mins by MBTH dye based assay
T1 sequence (P14679 whole entry): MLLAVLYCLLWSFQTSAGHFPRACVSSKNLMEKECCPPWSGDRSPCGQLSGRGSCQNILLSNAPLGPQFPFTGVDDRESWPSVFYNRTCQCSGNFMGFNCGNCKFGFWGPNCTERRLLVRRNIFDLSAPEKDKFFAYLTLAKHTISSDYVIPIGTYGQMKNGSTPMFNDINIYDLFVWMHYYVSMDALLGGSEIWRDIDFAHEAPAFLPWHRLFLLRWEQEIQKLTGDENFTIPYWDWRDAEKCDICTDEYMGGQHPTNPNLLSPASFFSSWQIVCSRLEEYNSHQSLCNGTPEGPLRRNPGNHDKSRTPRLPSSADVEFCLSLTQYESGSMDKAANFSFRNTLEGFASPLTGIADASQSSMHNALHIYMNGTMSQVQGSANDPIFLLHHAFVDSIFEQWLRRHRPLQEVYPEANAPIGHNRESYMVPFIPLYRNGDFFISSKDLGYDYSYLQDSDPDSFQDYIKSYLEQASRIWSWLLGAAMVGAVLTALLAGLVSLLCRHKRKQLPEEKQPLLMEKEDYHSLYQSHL

Mushroom tyrosinase [2] = molecular target: T2, Mushroom tyrosinase (Agaricus bisporus, UniProt O42713+Q00024+C7FF04+C7FF05); experiment: Inhibition of mushroom tyrosinase
Mushroom tyrosinase [3] = molecular target: T2, Mushroom tyrosinase; experiment: Inhibition of mushroom tyrosinase using L-DOPA as substrate preincubated for 20 mins followed by substrate addition by absorbance based analysis
Mushroom tyrosinase [4] = molecular target: T2, Mushroom tyrosinase; experiment: Inhibition of mushroom tyrosinase using L-tyrosine as substrate preincubated for 20 mins followed by substrate addition by absorbance based analysis
Mushroom tyrosinase [5] = molecular target: T2, Mushroom tyrosinase; experiment: Inhibition of mushroom tyrosinase using L-DOPA as substrate preincubated for 10 mins followed by substrate addition and measured after 20 mins
Mushroom tyrosinase [6] = molecular target: T2, Mushroom tyrosinase; experiment: Inhibition of mushroom tyrosinase using L-DOPA as substrate preincubated for 10 mins followed by substrate addition and measured after 20 mins by absorbance based analysis
Mushroom tyrosinase [7] = molecular target: T2, Mushroom tyrosinase; experiment: Binding affinity to mushroom tyrosinase assessed as inhibition constant using L-DOPA as substrate preincubated for 10 mins followed by substrate addition and measured after 20 mins
[8] = Cytotoxicity against mouse B16-F10 cells assessed as inhibition of cell growth at 8 uM measured after 24 hrs by MTT assay relative to control; assay type: toxicity, cell-based
[9] = Cytotoxicity against mouse B16-F10 cells assessed as inhibition of cell growth measured after 48 hrs by MTT assay; assay type: toxicity, cell-based
Mushroom tyrosinase [10] = molecular target: T2, Mushroom tyrosinase; experiment: Inhibition of mushroom tyrosinase using L-DOPA as substrate preincubated for 10 mins followed by substrate addition by absorbance based analysis
Mushroom tyrosinase [11] = molecular target: T2, Mushroom tyrosinase; experiment: Binding affinity to mushroom tyrosinase assessed as inhibition constant using L-DOPA as substrate preincubated for 10 mins followed by substrate addition by absorbance based analysis
Tyrosinase [12] = molecular target: T1, Tyrosinase; experiment: Inhibition of human His-tagged tyrosinase CD expressed in HEK293 cells assessed as inhibition of melanin production using L-DOPA as substrate; assay type: cell-based
[13] = Cytotoxicity against mouse B16-F10 cells assessed as inhibition of cell growth upto 20 uM measured after 24 hrs by absorbance based assay relative to control; assay type: toxicity
[14] = molecular target: Mushroom tyrosinase (Agaricus bisporus) (UniProt O42713+Q00024+C7FF04+C7FF05); experiment: Inhibition of mushroom tyrosinase transfected in mouse B16-F10 cells at 25 uM using L-tyrosine as substrate relative to control; assay type: cell-based

SMILES: O=C(Nc1cccc(-c2ccc(O)cc2O)c1)C1CCCCC1
- IC50 (Tyrosinase [1]): > 700 µM

SMILES: CC(C)[C@H]1C(=O)N2CCC[C@H]2c2cn(nn2)[C@@H](Cc2ccc(O)cc2)C(=O)N2CCC[C@H]2c2cn1nn2
- IC50 (Mushroom tyrosinase [2]): 1.6 µM

SMILES: CC(=O)/C=C/Nc1nc(-c2ccc(O)cc2O)cs1
- IC50 (Tyrosinase [1]): 3.5 µM

SMILES: NC(=S)N/N=C/c1ccc(OCc2cn(CC(=O)NCc3ccc(F)cc3)nn2)cc1
- IC50 (Mushroom tyrosinase [3]): 0.43 µM
- IC50 (Mushroom tyrosinase [4]): 0.83 µM

SMILES: COc1ccccc1-n1c(SCC(=O)Nc2ccc(F)cc2)nnc1-c1ccccc1
- IC50 (Mushroom tyrosinase [5]): 0.08 µM

SMILES: O=C1OC(c2ccccc2Br)=NC(=S)C1c1nn[nH]n1 (centres undefined)
- IC50 (Mushroom tyrosinase [6]): 0.037 µM
- Ki (Mushroom tyrosinase [7]): 0.0003 µM

SMILES: O=c1cc(CO)occ1O [KOJIC ACID]
- inhibition at 24 h, 8 µM [8]: 94%

SMILES: O=C(NC1CCCCC1)c1nc(-c2ccc(O)cc2O)cs1
- IC50 (Tyrosinase [1]): 56 µM

SMILES: CC(C)C(=O)Nc1nc(-c2ccc(O)cc2O)cs1
- IC50 (Tyrosinase [12]): 0.9 µM
- IC50 (Tyrosinase [1]): 1.4 µM

SMILES: CC(C)(C)C(=O)Nc1nc(-c2ccc(O)cc2O)cs1
- IC50 (Tyrosinase [1]): 5.7 µM

SMILES: NC(=S)N/N=C/c1ccc(OCc2cn(CC(=O)Nc3ccc(Cl)cc3)nn2)cc1
- IC50 (Mushroom tyrosinase [3]): 0.14 µM
- inhibition at 24 h, 8 µM [8]: 69.6%

SMILES: COc1ccccc1-n1c(SCC(=O)Nc2ccc(I)cc2)nnc1-c1ccccc1F
- IC50 (Mushroom tyrosinase [5]): 0.06 µM

SMILES: COc1ccccc1-n1c(SCC(=O)Nc2ccc(I)cc2)nnc1-c1ccccc1
- IC50 (Mushroom tyrosinase [5]): 0.65 µM

SMILES: COc1ccccc1-n1c(SCC(=O)Nc2ccc(Br)cc2)nnc1-c1ccccc1F
- IC50 (Mushroom tyrosinase [5]): 0.15 µM

SMILES: COc1cc(C2CC(c3cc4ccccc4oc3=O)=NN2c2nc(-c3ccc(Br)cc3)cs2)ccc1OCc1ccccc1 (centres undefined)
- IC50 (Mushroom tyrosinase [10]): 0.00458 µM
- Ki (Mushroom tyrosinase [11]): 0.0086 µM

SMILES: CC(C)[C@@H]1NC(=O)[C@@H]2CCCN2C(=O)[C@H](Cc2ccc(O)cc2)n2cc(nn2)[C@@H]2CCCN2C1=O
- IC50 (Mushroom tyrosinase [2]): 0.5 µM

SMILES: CN(C(=O)C1CCCCC1)c1nc(-c2ccc(O)cc2O)cs1
- IC50 (Tyrosinase [1]): > 1000 µM

SMILES: NC(=S)N/N=C/c1ccc(OCc2cn(CC(=O)NCc3ccccc3)nn2)cc1
- IC50 (Mushroom tyrosinase [3]): 0.17 µM
- IC50 (Mushroom tyrosinase [4]): 0.25 µM
- inhibition at 24 h, 8 µM [8]: 39.8%

SMILES: COc1ccccc1-n1c(SCC(=O)Nc2ccccc2)nnc1-c1ccccc1F
- IC50 (Mushroom tyrosinase [5]): 0.54 µM

SMILES: Oc1ccc(-c2csc(Nc3ncccn3)n2)cc1
- IC50 (Tyrosinase [1]): 19 µM

Second part, led by results:

- IC50 (Tyrosinase [1]): > 200 µM
SMILES: OCCc1ccc(O)cc1O

- IC50 (Tyrosinase [1]): 6.2 µM
SMILES: CCCNc1nc(-c2ccc(O)cc2O)cs1

- IC50 (Mushroom tyrosinase [6]): 0.06 µM
SMILES: O=C1C=C(Cn2cc(COc3cccc4ccccc34)nn2)C(=O)C=C1O
- IC50 at 48 h [9]: 65 µM

- IC50 (Tyrosinase [1]): > 700 µM
SMILES: CCC(=O)Nc1nc(-c2ccc(O)cc2F)cs1

- IC50 (Mushroom tyrosinase [10]): 0.25 µM
- Ki (Mushroom tyrosinase [11]): 0.075 µM
SMILES: Oc1ccc(/C=N/c2nnc(S)s2)c(O)c1

- IC50 (Mushroom tyrosinase [5]): 0.21 µM
SMILES: CCCCn1c(SCC(=O)Nc2ccccc2)nnc1-c1ccccc1

- IC50 (Tyrosinase [1]): > 1000 µM
SMILES: Cc1sc(NC(=O)C2CCCCC2)nc1-c1ccc(O)cc1O

- IC50 (Tyrosinase [12]): 13.5 µM
SMILES: CCCCc1ccc(O)cc1O [RUCINOL]

- IC50 (Tyrosinase [1]): > 700 µM
SMILES: CC(=O)Nc1nc(-c2ccc(O)cc2O)c[nH]1

- IC50 (Tyrosinase [1]): 93 µM
SMILES: CCCCCCc1ccc(O)c(C)c1O

- IC50 (Mushroom tyrosinase [2]): 4.7 µM
- inhibition [14]: 55%
SMILES: O=C1/C(=C/c2ccc(O)cc2O)OC(=S)N1c1ccccc1
- inhibition at 24 h, up to 20 µM [13]: ~55%

- IC50 (Tyrosinase [1]): > 200 µM
SMILES: CCCCc1ccc(O)c(C)c1O

- IC50 (Tyrosinase [1]): 16 µM
SMILES: Oc1ccc(-c2csc(NC3CCCCC3)n2)c(O)c1
